The record followed here is patent US20250388593A1 (MITSUBISHI TANABE PHARMA CORPORATION, priority 2023, published 2025).

As a reminder, the Kd is the free concentration of one partner at which half of the binding sites on the other are occupied at equilibrium, for simple one-to-one binding.

Chain of CRBN truncate (318-426) (Q96SW2 318-426): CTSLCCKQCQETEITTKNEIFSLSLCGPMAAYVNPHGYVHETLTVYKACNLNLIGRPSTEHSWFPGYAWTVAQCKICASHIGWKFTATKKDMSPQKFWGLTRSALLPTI

The target in this test is CRBN truncate (318-426) (Homo sapiens (Human), UniProt Q96SW2). Briefly: Measurement of molecular interactions using surface plasmon resonance (SPR), Biacore T200. The format is binding. As to conditions: 25° C., immobilized CRBN truncate, upper limit of measurement 200 μM. As for the experimental part:
The instrument used was the Biacore T200 (manufactured by Cytiva). The CRBN truncate (318-426) was obtained by expressing a construct with an Avi-tag added at the C-terminus. The sensor chip used was Sensor Chip SA (manufactured by Cytiva). The CRBN truncate was immobilized using the affinity between SA (streptavidin) on the sensor chip and the Avi-tag. The running buffer was a mixture of 10 mM HEPES pH 7.5, 150 mM NaCl, 1 mM TCEP, 0.005% Tween 20, and 2% DMSO. […] Contact time and dissociation time were set at 60 seconds and 120 seconds, respectively.
(In general: In SPR one partner is held on a chip, and binding of the other changes the refractive index at the surface.)
In the case of “2-(3-Methyl-5-nitro-2-pyridyl)-2,7-diazaspiro[4.6]undecane-6,8-dione [Example 78]”, the Kd is at least 100 µM.
For `O=C1NC(=O)[C@@]2(c3ccc(Br)cc3)CC[C@@H]1O2` (racemic) [Example 173, 1-(4-Bromophenyl)-8-oxa-3-azabicyclo [3.2.1]octane-2,4-dione] the value was at least 100 µM; for `CN1C(=O)[C@H](N2C=CCC(=O)NC2=O)C[C@H]1c1ccc(/C=C/C(=O)OC(C)(C)C)cc1` (relative stereo) [Example 290, tert-Butyl (E)-3-[4-[(2S*,4R*)-4-(2,4-dioxo-5H-1,3-diazepin-1-yl)-1-methyl-5-oxopyrrolidin-2-yl]phenyl]prop-2-enoate], at least 100 µM; for `Cc1sc2c(c1C)C(c1ccc(Cl)cc1)=N[C@@H](CC(=O)NCCCCCCCCNC(=O)/C=C/c1ccc([C@H]3C[C@H](N4C=CCC(=O)NC4=O)C(=O)N3C)cc1)c1nnc(C)n1-2` (relative stereo) [Example 349, (E)-N-[8-[[2-[(9S)-7-(4-chlorophenyl)-4,5,13-trimethyl-3-thia-1,8,11,12-tetrazatricyclo[8.3.0.02,6]trideca-2(6),4,7,10,12-pentaen-9-yl]acetyl]amino]octyl]-3-[4-[(2R*,4S*)-4-(2,4-dioxo-5H-1,3-diazepin-1-yl)-1-methyl-5-oxopyrrolidin-2-yl]phenyl]prop-2-enamide], below 50 µM.
`Cn1c(=O)n([C@@H]2CCCC(=O)NC2=O)c2cccc(I)c21` (single isomer, unassigned) [Example 211, 3-(4-Iodo-3-methyl-2-oxobenzimidazol-1-yl) azepane-2,7-dione] had a Kd of 50 to 100 µM.
For the compound `Cc1sc2c(c1C)C(c1ccc(Cl)cc1)=N[C@@H](CC(=O)NCCCCCCCCCCC(=O)N1CCC(c3ccc(C45CCC(O4)C(=O)NC5=O)cc3)CC1)c1nnc(C)n1-2` (stereo in doubt) [Example 358, 2-[(9S)-7-(4-chlorophenyl)-4,5,13-trimethyl-3-thia-1,8,11,12-tetraazatricyclo[8.3.0.02,6]trideca-2(6),4,7,10,12-pentaen-9-yl]-N-[11-[4-[4-[(1R*,5R*)-2,4-dioxo-8-oxa-3-azabicyclo[3.2.1]octan-1-yl]phenyl]-1-piperidyl]-11-oxo-undecyl]acetamide], the Kd is below 50 µM.
For `CC(C)(C)OC(=O)NCc1cn(C2CCCC(=O)NC2=O)nn1` (stereo not drawn) [Example 1, tert-Butyl N-[[1-(2,7-dioxoazepan-3-yl)triazol-4-yl]methyl]carbamate] the value was at least 100 µM; for `CC(C)(C)OC(=O)N1CCC(c2cn(C3CCCC(=O)NC3=O)nn2)CC1` (stereo not drawn) [Example 2, tert-Butyl 4-[1-(2,7-dioxoazepan-3-yl)triazol-4-yl]piperidine-1-carboxylate], at least 100 µM.
`CC(C)(C)OC(=O)Nc1ccc(-c2cn(C3CCCC(=O)NC3=O)nn2)cc1` (stereo not drawn) [Example 3, tert-Butyl N-[4-[1-(2,7-dioxoazepan-3-yl)triazol-4-yl]phenyl]carbamate]: the Kd was at least 100 µM.
For `CC(C)(C)OC(=O)Nc1cccc(-c2cn(C3CCCC(=O)NC3=O)nn2)c1` (stereo not drawn) [Example 5, tert-Butyl N-[3-[1-(2,7-dioxoazepan-3-yl)triazol-4-yl]phenyl]carb amate] the value was at least 100 µM; for `CC(C)(C)OC(=O)Nc1ccccc1-c1cn(C2CCCC(=O)NC2=O)nn1` (stereo not drawn) [Example 6, tert-Butyl N-[2-[1-(2,7-dioxoazepan-3-yl)triazol-4-yl]phenyl]carbamate], at least 100 µM; for `CN(C1CCCC(=O)NC1=O)S(=O)(=O)c1ccc(Cl)cc1` (stereo not drawn) [Example 7, 4-Chloro-N-(2,7-dioxoazepan-3-yl)-N-methylbenzenesulfonamide], at least 100 µM.
The compound `O=C1CCCC(NS(=O)(=O)c2ccc(Cl)cc2)C(=O)N1` (stereo not drawn) [Example 8, 4-Chloro-N-(2,7-dioxoazepan-3-yl) benzenesulfonamide] gave a Kd of at least 100 µM.
The compound `O=C1CCCC(NS(=O)(=O)c2cccc(Cl)c2)C(=O)N1` (stereo not drawn) [Example 9, 3-Chloro-N-(2,7-dioxoazepan-3-yl) benzenesulfonamide] registered a Kd of at least 100 µM.
For `CN(C1CCCC(=O)NC1=O)S(=O)(=O)c1cccc(Cl)c1` (stereo not drawn) [Example 10, 3-Chloro-N-(2,7-dioxoazepan-3-yl)-N-methylbenzenesulfonamide] the value was at least 100 µM.
Next, `COC(=O)c1cccc(S(=O)(=O)N(C)C2CCCC(=O)NC2=O)c1` (stereo not drawn) [Example 11, Methyl 3-[(2,7-dioxoazepan-3-yl)-methylsulfamoyl]benzoate]: at least 100 µM; `O=C1COCC2(CCCN(C(=O)c3ccccc3)C2)C(=O)N1` (stereo not drawn) [Example 12-2, 2-Benzoyl-8-oxa-2,11-diazaspiro[5.6]dodecane-10,12-dione]: at least 100 µM.
As for `O=C1COCC2(CCN(C(=O)c3ccccc3)CC2)C(=O)N1` [Example 13-2, 3-benzoyl-8-oxa-3,11-diazaspiro[5.6]dodecane-10,12-dione], the Kd was at least 100 µM.
Next, `O=C1CCCC2(CCCN(C(=O)c3ccccc3)CCC2)C(=O)N1` [Example 14, 11-Benzoyl-2,11-diazaspiro[6.7]tetradecane-1,3-dione]: 50 to 100 µM; `CC(C)(C)OC(=O)c1ccc(N2CCCC3(COCC(=O)NC3=O)C2)nc1` (stereo not drawn) [Example 15, tert-Butyl 6-(10,12-dioxo-8-oxa-2,11-diazaspiro [5.6]dodecan-2-yl) pyridine-3-carboxylate]: at least 100 µM.
For `CC(C)(C)OC(=O)c1ccc(N2CCC3(CC2)COCC(=O)NC3=O)nc1` [Example 16, tert-Butyl 6-(10,12-dioxo-8-oxa-3,11-diazaspiro [5.6]dodecan-3-yl) pyridine-3-carboxylate] the value was at least 100 µM; for `O=C1CCOC(c2ccccc2)C(=O)N1` (stereo not drawn) [Example 18, 2-Phenyl-1,4-oxazepane-3,5-dione], at least 100 µM; for `O=C1CCOC(c2cccc(Br)c2)C(=O)N1` (stereo not drawn) [Example 19, 2-(3-Bromophenyl)-1,4-oxazepane-3,5-dione], at least 100 µM.
For `CN(C(=O)c1cccc(-c2ccccc2)c1)C1CCCC(=O)NC1=O` (stereo not drawn) [Example 20, N-(2,7-Dioxoazepan-3-yl)-N-methyl-3-phenylbenzamide] the value was at least 100 µM; for `O=C1CCCC(NC(=O)c2cccc(-c3ccccc3)c2)C(=O)N1` (stereo not drawn) [Example 21, N-(2,7-dioxoazepan-3-yl)-3-phenylbenzamide], at least 100 µM; for `O=C1COCC(NC(=O)c2cccc(-c3ccccc3)c2)C(=O)N1` (stereo not drawn) [Example 22, N-(3,5-dioxo-1,4-oxazepan-6-yl)-3-phenylbenzamide], at least 100 µM.
As for `CC(C)(C)OC(=O)N(CC1CCCC(=O)NC1=O)c1ccc(F)cc1` (stereo not drawn) [Example 24, tert-Butyl N-[(2,7-dioxoazepan-3-yl)methyl]-N-(4-fluorophenyl) carbamate], the Kd was at least 100 µM.
For `O=C1CCCC(CNc2ccc(F)cc2)C(=O)N1` (stereo not drawn) [Example 25, 3-[(4-Fluoroanilino)methyl]azepane-2,7-dione] the value was at least 100 µM; for `COC(=O)c1ccc(=O)n(C2CCCC(=O)NC2=O)c1` (stereo not drawn) [Example 26, Methyl 1-(2,7-dioxoazepan-3-yl)-6-oxopyridine-3-carboxylate], at least 100 µM; for `CN(C1CCCC(=O)NC1=O)S(=O)(=O)c1ccc(CNC(=O)OC(C)(C)C)cc1` (stereo not drawn) [Example 27, tert-Butyl N-[[4-[(2,7-dioxoazepan-3-yl)-methylsulfamoyl]phenyl]methyl]carbamate], at least 100 µM.
